Key:
SNI mice [1] = experiment: Spared nerve injury (SNI) model, Von Frey test, intrathecal or i.p. administration; format: in vivo
Procedure: Spared nerve injury model (SNI) was performed according to methods described in Richner et al., 2011. Briefly, under isoflurane (2%) anaesthesia, the skin on the left lateral surface of the thigh was incised and the biceps femoris muscle was divided and spread lengthwise to expose the three branches of the sciatic nerve. After exposing the three branches (common peroneal, tibial and sural) in anesthetized mice, the common peroneal and tibial branches were carefully segregated from surrounding tissues, tightly ligated and axotomized ˜2 mm of the distal nerve stump, while the sural branch was left intact.
Drugs were administered either intrathecally to anesthetized mice or intraperitoneally (i.p.).
The development and level of mechanical threshold was determined in the affected hind paws 2 days after the SNI procedure by using Von Frey filaments ranging from 0.02 to 1.4 g. In the current experiments filaments in ascending order were applied to the lateral part of the hind paws. Each Von Frey hair was applied five times over a total period of 30 seconds and the mouse's reaction was assessed after each application; the threshold for a positive test was set at 3 trials, which evoked responses out of a maximum of 5 trials. […] Forces of the instrument are measured with units “g” and represent the gram-forces. […]

SNI mice [2] = experiment: SNI neuropathic pain model, subcutaneous administration, Von Frey; format: in vivo; settings: 10 μmol/kg s.c.
Procedure: Mice: 8 weeks old C57BI6J mice (from Charles River)
10 μmol/kg peptide solution was subcutaneously administered (100 μL/10 g).
Spared Nerved Injury surgery: The surgery was performed on anaesthetized mice. A complete ligature and transection of the common peroneal and tibial distal branches of the sciatic nerve was performed, leaving the sural branch intact. The operated side is referred to as the ipsilateral side and the non-operated side is referred to as the contralateral side. 7 days post-surgery, a decrease of threshold response to Von Frey filaments of ipsilateral hind paw was observed.
Mechanical threshold response: The mechanical threshold response of the operated mice was measured with calibrated Von Frey filaments using up/down method, and the 50% threshold (g) was calculated (see equation 1). Mechanical pain responses are defined as paw withdrawal, flinching and/or paw licking following filament prick. The experimenter was blinded to mice treatment. One baseline measure was performed before surgery, one measure 7 days after surgery (D+7) before drug's administration. One measure was performed 1 h, 2 h, 3 h and 4 h post drug administration. n=8 mice/timepoint for peptide treatment.
Statistical analysis: Statistical analysis was performed using Graphpad Prism 7.0. Pain threshold, measured as paw withdrawal threshold, was compared between time “before drug effect” and time points after drug administration (+1, +2, +3, +4 hrs), or against vehicle control (all time points). Two-way RM ANOVA followed by Dunnet's multiple comparison tests. Significance level set to p<0.05.

PICK1 = biological target: T1, PICK1 (Rattus norvegicus, UniProt Q9EP80); experiment: biochemical; format: binding; settings: for Fold affinity change: compared to TAT-P4-(C5)2
T1 construct: made in house; host or cells: E. coli BL21-DE3-pLysS
Procedure: The data was plotted in GraphPad Prism 7.0 and fitted to a ‘One site-Fit’ Ki curve and the apparent affinities (Ki) for the unlabelled peptides were determined using correction for depletion.

[3] = FPLC size exclusion chromatography of CPP variants in PBS; format: physicochemical; settings: Superdex 200 Increase 10/300, relative to P4-(C5)2
Procedure: All samples were run in a 200 μL volume on a Superdex 200 Increase 10/300 column on an AKTA purifier FPLC system. The absorbance at 280 nm as a function of elution volume was normalized to the maximal absorbance of each peptide and plotted using GraphPadPrism 7.0.

PICK1 PDZ domain = biological target: T2, PICK1 PDZ domain (Rattus norvegicus, UniProt Q9EP80); experiment: Fluorescence polarization competition binding to PICK1 (Example 1); settings: PEGx dimerization of C5
T2 construct: made in house; host or cells: E. coli BL21-DE3-pLysS
Procedure: Protein expression was induced with 10 mM Isopropyl β-D-1-thiogalactopyranoside (IPTG) and grown overnight at 20° C. […] Resuspended pellet was frozen at −80° C. to induce cell lysis. The bacterial suspension was thawed and cleared by centrifugation. The supernatant was collected and incubated with Glutathione-Sepharose 4B beads for 2 hrs at 4° C. under gentle rotation. […] Washed beads were transferred to a PD10 gravity column. Bead solution was incubated with thrombin protease overnight at 4° C. under gentle rotation.
Fluorescence polarization was carried out in saturation mode and competition mode.

Plasma stability = format: in vitro ADME; settings: human, 37° C., 24 h incubation
Procedure: (§1) 360 μL undiluted human male serum (Sigma; H4522) or PBS was kept at 37° C. for 15 min, followed by addition of 40 μL (500 uM) of relevant peptide and subsequent incubation at 37° C. For stability analysis, 45 μL samples was taken out at t=0 min and t=24 hrs, and samples quenched by addition of 50 μL 6M urea followed by incubation at 37° C. for additional 30 min. 50 μL 20% TCA (W7V) in acetone was added to each sample before incubation for at least 16 hrs at 5° C. Samples were centrifuged at 14.000×g for 30 min and supernatants collected and filtered using a 0.22 μm syringe filter. Samples were analyzed on an Acquity UPLC H-Class instrument using a C18 column with a 15 min 10-80% […] gradient. Remaining analyte (%) was calculated as the area under curve (AUC) of the main peak at indicated time points relative to the sample at t=0 min.

PBS stability = format: physicochemical; settings: 37° C., 24 hrs
Procedure: as §1

T1 sequence (Q9EP80 whole entry): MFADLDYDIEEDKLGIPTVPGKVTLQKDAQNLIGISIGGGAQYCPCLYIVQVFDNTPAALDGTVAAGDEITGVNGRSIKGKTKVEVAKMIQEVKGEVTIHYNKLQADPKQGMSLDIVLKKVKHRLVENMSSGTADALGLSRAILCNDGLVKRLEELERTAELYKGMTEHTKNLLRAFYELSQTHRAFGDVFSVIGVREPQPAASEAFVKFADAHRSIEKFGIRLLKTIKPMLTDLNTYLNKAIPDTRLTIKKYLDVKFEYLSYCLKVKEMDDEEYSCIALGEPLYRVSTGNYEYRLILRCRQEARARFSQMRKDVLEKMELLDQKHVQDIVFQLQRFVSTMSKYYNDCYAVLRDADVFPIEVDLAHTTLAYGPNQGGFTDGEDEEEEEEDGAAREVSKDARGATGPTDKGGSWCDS
T2 sequence (Q9EP80 whole entry, the tested form may be a part): as the sequence (Q9EP80 whole entry) above

CCOC(=O)NC(=O)/C(C#N)=C/c1ccc(Cl)c(Cl)c1 [FSC231]
mechanical hypersensitivity / withdrawal threshold, acute phase (SNI mice [1]; intrathecal, two days after operation): did not affect withdrawal threshold

CC(C)C[C@H](NC(=O)[C@H](C)NC(=O)[C@H](CCCCN)NC(=O)[C@H](CC(C)C)NC(=O)[C@H](C)NC(=O)[C@H](CC(C)C)NC(=O)[C@H](CCCCN)NC(=O)[C@H](CC(C)C)NC(=O)[C@H](C)NC(=O)[C@H](CC(C)C)NC(=O)[C@@H](N)CCCCN)C(=O)N[C@@H](CCCCN)C(=O)N[C@@H](C)C(=O)N[C@@H](C)C(=O)N[C@@H](CC(C)C)C(=O)N[C@@H](CCCCN)C(=O)N[C@@H](CC(C)C)C(=O)N[C@@H](C)C(=O)N(CCOCCOCCC(=O)N[C@@H](Cc1c[nH]cn1)C(=O)N[C@@H](Cc1c[nH]c2ccccc12)C(=O)N[C@@H](CC(C)C)C(=O)N[C@@H](CCCCN)C(=O)N[C@H](C(=O)O)C(C)C)CCOCCOCCC(=O)N[C@@H](Cc1c[nH]cn1)C(=O)N[C@@H](Cc1c[nH]c2ccccc12)C(=O)N[C@@H](CC(C)C)C(=O)N[C@@H](CCCCN)C(=O)N[C@H](C(=O)O)C(C)C [MAP-P4-(C5)2]
ipsilateral paw mechanical threshold compared to before drug administration (SNI mice [2]; 1 h): significant increase | ipsilateral paw mechanical threshold compared to before drug administration (SNI mice [2]; 2 h): significant increase | ipsilateral paw mechanical threshold compared to vehicle (SNI mice [2]; 2 h): significant increase | Ki (PICK1): 5.1 nM | Fold affinity change (PICK1): 0.8 fold | in-solution oligomeric behavior from elution volume [3]: forms higher oligomeric structures than P4-(C5)2

CC(C)C[C@H](NC(=O)[C@H](Cc1c[nH]c2ccccc12)NC(=O)[C@H](Cc1c[nH]cn1)NC(=O)CCOCCOCCOCCOCCOCCC(=O)N[C@@H](Cc1c[nH]cn1)C(=O)N[C@@H](Cc1c[nH]c2ccccc12)C(=O)N[C@@H](CC(C)C)C(=O)N[C@@H](CCCCN)C(=O)N[C@H](C(=O)O)C(C)C)C(=O)N[C@@H](CCCCN)C(=O)N[C@H](C(=O)O)C(C)C [P4-(C5)2, PEG4-(HWLKV)2]
fold increase in affinity compared to monomeric C5 (PICK1 PDZ domain): 15 fold

CC[C@H](C)[C@H](NC(=O)[C@H](CCCCN)NC(=O)[C@@H](NC(=O)[C@H](CCC(N)=O)NC(=O)[C@@H](N)CCCNC(=N)N)[C@@H](C)CC)C(=O)N[C@@H](Cc1c[nH]c2ccccc12)C(=O)N[C@@H](Cc1ccccc1)C(=O)N[C@@H](CCC(N)=O)C(=O)N[C@@H](CC(N)=O)C(=O)N[C@@H](CCCNC(=N)N)C(=O)N[C@@H](CCCNC(=N)N)C(=O)N[C@@H](CCSC)C(=O)N[C@@H](CCCCN)C(=O)N[C@@H](Cc1c[nH]c2ccccc12)C(=O)N[C@@H](CCCCN)C(=O)N[C@@H](CCCCN)C(=O)N(CCOCCOCCC(=O)N[C@@H](Cc1c[nH]cn1)C(=O)N[C@@H](Cc1c[nH]c2ccccc12)C(=O)N[C@@H](CC(C)C)C(=O)N[C@@H](CCCCN)C(=O)N[C@H](C(=O)O)C(C)C)CCOCCOCCC(=O)N[C@@H](Cc1c[nH]cn1)C(=O)N[C@@H](Cc1c[nH]c2ccccc12)C(=O)N[C@@H](CC(C)C)C(=O)N[C@@H](CCCCN)C(=O)N[C@H](C(=O)O)C(C)C [PNT-P4-(C5)2]
ipsilateral paw mechanical threshold compared to before drug administration (SNI mice [2]; any time-point): did not show significant increase | ipsilateral paw mechanical threshold compared to vehicle (SNI mice [2]; any time-point): no significant increase | in-solution oligomeric behavior from elution volume [3]: smaller oligomers than P4-(C5)2 or direct interaction with the column material

CC(C)C[C@H](NC(=O)[C@H](Cc1c[nH]c2ccccc12)NC(=O)[C@H](Cc1cnc[nH]1)NC(=O)[C@H](CCCNC(=N)N)NC(=O)[C@H](CCCNC(=N)N)NC(=O)[C@H](CCCNC(=N)N)NC(=O)[C@H](CCC(N)=O)NC(=O)[C@H](CCCNC(=N)N)NC(=O)[C@H](CCCNC(=N)N)NC(=O)[C@H](CCCCN)NC(=O)[C@H](CCCCN)NC(=O)[C@H](CCCNC(=N)N)NC(=O)CNC(=O)[C@@H](N)Cc1ccc(O)cc1)C(=O)N[C@@H](CCCCN)C(=O)N[C@H](C(=O)O)C(C)C [TAT-C5]
plasma stability (Plasma stability): improved | stability in PBS (PBS stability): good stability in PBS

CC[C@H](C)[C@H](NC(=O)[C@H](CCCCN)NC(=O)CNC(=O)[C@H](CC(C)C)NC(=O)[C@H](CC(C)C)NC(=O)[C@H](Cc1ccc(O)cc1)NC(=O)CNC(=O)[C@H](C)NC(=O)[C@H](CO)NC(=O)[C@H](CC(N)=O)NC(=O)[C@H](CC(C)C)NC(=O)[C@@H](NC(=O)[C@H](Cc1c[nH]c2ccccc12)NC(=O)CN)[C@@H](C)O)C(=O)N[C@@H](CC(N)=O)C(=O)N[C@@H](CC(C)C)C(=O)N[C@@H](CCCCN)C(=O)N[C@@H](C)C(=O)N[C@@H](CC(C)C)C(=O)N[C@@H](C)C(=O)N[C@@H](C)C(=O)N[C@@H](CC(C)C)C(=O)N[C@@H](C)C(=O)N[C@@H](CCCCN)C(=O)N[C@@H](CCCCN)C(=O)N[C@H](C(=O)N[C@@H](CC(C)C)C(=O)N(CCOCCOCCC(=O)N[C@@H](Cc1c[nH]cn1)C(=O)N[C@@H](Cc1c[nH]c2ccccc12)C(=O)N[C@@H](CC(C)C)C(=O)N[C@@H](CCCCN)C(=O)N[C@H](C(=O)O)C(C)C)CCOCCOCCC(=O)N[C@@H](Cc1c[nH]cn1)C(=O)N[C@@H](Cc1c[nH]c2ccccc12)C(=O)N[C@@H](CC(C)C)C(=O)N[C@@H](CCCCN)C(=O)N[C@H](C(=O)O)C(C)C)[C@@H](C)CC [TP10-P4-(C5)2]
ipsilateral paw mechanical threshold compared to before drug administration (SNI mice [2]; 2 h): significant increase | ipsilateral paw mechanical threshold compared to vehicle (SNI mice [2]; 2 h): significant increase | Fold affinity change (PICK1): 0.5 fold | in-solution oligomeric behavior from elution volume [3]: smaller oligomers than P4-(C5)2 or direct interaction with the column material

NCC1(CC(=O)O)CCCCC1 [gabapentin]
mechanical hypersensitivity, chronic phase (SNI mice [1]; 30 mg/kg i.p., day 14 after surgery, at 2 hours): full recovery from mechanical hypersensitivity

— patent US20250215052A1, “INHIBITORS OF PICK1 AND USES THEREOF” (University of Copenhagen, priority 2018, published 2025)
